What all share (assay type): ADME, organism-based
Series [1] relates to Homo sapiens. Description: Pharmacokinetic parameters for Mycophenolic acid following single oral administration of Mycophenolate Mofetil to subjects with different health status. Further details: dose 1 g, route oral. The following applies: in vivo, dosed compound id 90, dosed compound name MYCOPHENOLATE MOFETIL, gender male and female, regimen Single dose, tissue Plasma.
The test system of series [2] is Homo sapiens. The series is described as follows: Pharmacokinetic parameters for Mycophenolic acid following multiple administration of Mycophenolate Mofetil to hepatic, cardiac and renal transplant patients, at least 5 days after transplant. Further details: dose 600 mg/m2, dose 1.5 g, dose 1 g, route oral, route iv. To be noted: in vivo, 120 h, dosed compound id 90, dosed compound name MYCOPHENOLATE MOFETIL, gender male and female, regimen Twice daily, tissue Plasma.

Series [3] concerns Homo sapiens. The series is described as follows: Apparent Volume of distribution (Vd) of […] following oral and intravenous (IV) administration of Mycophenolate Mofetil to 12 healthy volunteers. To be noted: in vivo, dosed compound id 90, dosed compound name MYCOPHENOLATE MOFETIL, gender male and female, tissue Plasma.

Broadly, the Tmax is the time at which the peak concentration occurs. What is called Cmax is the maximum level reached in the sampled fluid or tissue.

The structures appear in SMILES notation. “And” between values parts separate entries of the source, which are not always exact repeats. Equal entries are not always repeated.

As for `COc1c(C)c2c(c(O)c1C/C=C(\C)CCC(=O)O)C(=O)OC2` [MYCOPHENOLIC ACID], the Tmax in the series with Homo sapiens [1] (dose 1 g, route oral) is 0.8 h and 0.75 h and 0.63 h and 1 h and 0.85 h; in the series with Homo sapiens [2] (iv, dose 1 g), 1.58 h and 1.5 h; in the series on Homo sapiens [2] (po, dose 1 g) it was 1.33 h and 1.31 h; in the series on Homo sapiens [2] (po, dose 1.5 g), 1.15 hr [middle of 5 runs]. For the same compound, the “AUC(0-48)” value in the series on Homo sapiens [1] is 29800 ng·h/mL. In the series on Homo sapiens [1], the “AUC(0-96)” value was 45000 ng·h/mL and 59900 ng·h/mL and 78600 ng·h/mL. Further, the Cmax with Homo sapiens [1] is 24500 ng/mL and 25300 ng/mL and 16300 ng/mL and 22400 ng/mL. In the series with Homo sapiens [1], the “Total AUC” value came to 63900 ng·h/mL. The results for the “AUC(0-12)” value in the series on Homo sapiens [2] (sampling time1 4 hours) and in the series with Homo sapiens [2] were 54.1 µg·h/mL and 43.3 mcg.hr/mL [middle of 21 runs], respectively. Further, the Vd in the series with Homo sapiens [3] (iv) came out at 3.6 L/kg; in the series on Homo sapiens [3] (po), 4 L/kg.

Source of the values: ChEMBL document CHEMBL3832071, “DailyMed|setid=56428c8f-8a4b-4cbf-93f1-28d8b5cfb51a | MYCOPHENOLATE MOFETIL- mycophenolate mofetil capsule|MYCOPHENOLATE MOFETIL- mycophenolate mofetil tablet, film coated | Cadila Healthcare Limited”.
